Data: patent publication US7384959B2, “Treatment of convulsive states” (priority 1999, dated 2008)
Marks after values point to notes of the source that are not given here.

What was measured:
rat [1] = test: Pentylenetetrazole (PTZ) Seizure Test; type: in vivo; details: for NUMBER OF CLONIC CONVULSIONS number of rats / NUMBER OF DEATHS number of rats / NUMBER OF TONIC CONVULSIONS number of rats: 10 rats per group; for NUMBER OF CLONIC CONVULSIONS number of rats / NUMBER OF DEATHS number of rats / NUMBER OF TONIC CONVULSIONS number of rats / NUMBER OF CLONIC CONVULSIONS % antagonism / NUMBER OF DEATHS % antagonism / NUMBER OF TONIC CONVULSIONS % antagonism: observed during 60 minutes; for LATENCY TO CLONIC CONVULSIONS % change from control / LATENCY TO CLONIC CONVULSIONS mean ± s.e.m. / LATENCY TO DEATHS % change from control / LATENCY TO DEATHS mean ± sem. / LATENCY TO TONIC CONVULSIONS % change from control / LATENCY TO TONIC CONVULSIONS mean ± sem.: rat; for anticonvulsant activity in the PTZ Seizure Test: animal model, delivered subcutaneously
From the text: (§1) The following Tables report the results of the Irwin, PTZ and barbital interaction (sleep induction) tests. Description of these tests may be found in Psychopharmacologica, 13:222-257 (1968), Krall et al, Epilepsia 19:409-428 (1978), and Simon et al, J. Pharmacol, Paris 13:241-252 (1982). See also Roux et al, Phoenix international Pharmacology Reports Nos. D30.2061/2 and D99.021/2.
Table 2a reports mean results based on animals showing the symptoms (minimum=3 animals). Table 2b reports results observed during 60 minutes. In these Tables: Student's t Test: NS=Not Significant; *=p<0.05; ** p<0.01; ***=p<0.001 Fisher's Exact Test: No indication=Not Significant; **=p<0.01; ***=p<0.001

rat [2] = test: barbital interaction (sleep induction) test; type: in vivo; details: for NUMBER OF RATS SLEEPING: 10 rats per group; for SLEEP DURATION mean ± s.e.m.: maximum 6 hours after barbital injection
From the text: as §1
In Table 3, the following apply: Student's t Test: NS=Not Significant; *=p<0.05; **=p<0.01; ***=<0.001 Fisher's Exact Test: (number of rats sleeping) No indication=Not Significant; +=p<0.05; ++=p<0.01; +++=p<0.001 • (#): maximum=6 hours after barbital injection (taken 50 minutes after barbital injection).

mouse = test: liver damage (plasma alanine aminotransferase, microscopic examination for hepatic necrosis); type: in vivo
Protocol: (§2) At very high doses, some inhibition of cytochrome P450 sub-types C8/9, 2C18/19 and 2D6 was found, but the concentrations required to inhibit enzyme activities (100 μM) were much greater than the maximum concentrations likely to be found in vivo and are therefore not likely to be clinically relevant.

[3] = target: T1, cytochrome P450 sub-type 1A2 (Homo sapiens, UniProt P05177); test: effect on cytochrome P450 activity; type: in vitro ADME
T1 sequence (P05177 1-516): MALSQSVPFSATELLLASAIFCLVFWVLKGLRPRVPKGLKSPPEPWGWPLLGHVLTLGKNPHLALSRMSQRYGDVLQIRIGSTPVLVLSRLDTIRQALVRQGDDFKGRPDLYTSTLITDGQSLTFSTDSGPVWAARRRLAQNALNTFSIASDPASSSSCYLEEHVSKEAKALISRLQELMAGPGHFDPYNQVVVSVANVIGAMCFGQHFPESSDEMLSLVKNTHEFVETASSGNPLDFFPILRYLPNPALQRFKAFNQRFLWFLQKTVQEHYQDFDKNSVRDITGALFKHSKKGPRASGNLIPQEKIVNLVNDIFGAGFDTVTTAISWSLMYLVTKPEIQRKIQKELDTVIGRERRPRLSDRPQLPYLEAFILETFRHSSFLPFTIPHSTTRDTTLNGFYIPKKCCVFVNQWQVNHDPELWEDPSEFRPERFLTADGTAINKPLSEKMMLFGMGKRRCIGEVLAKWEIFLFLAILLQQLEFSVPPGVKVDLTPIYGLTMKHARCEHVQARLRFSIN
Protocol: as §2

[4] = system: cytochrome P450 sub-type 2C18/19; test: effect on cytochrome P450 activity; type: in vitro ADME; details: some inhibition at very high doses
Protocol: as §2

[5] = target: cytochrome P450 sub-type 2D6 (Homo sapiens, UniProt P10635); test: effect on cytochrome P450 activity; type: in vitro ADME; details: some inhibition at very high doses
Protocol: as §2

[6] = target: cytochrome P450 sub-type 2E1 (Homo sapiens, UniProt P05181); test: effect on cytochrome P450 activity; type: in vitro ADME
Protocol: as §2

[7] = target: cytochrome P450 sub-type 3A4 (Homo sapiens, UniProt P08684); test: effect on cytochrome P450 activity; type: in vitro ADME
Protocol: as §2

[8] = system: cytochrome P450 sub-type C8/9; test: effect on cytochrome P450 activity; type: in vitro ADME; details: some inhibition at very high doses
Protocol: as §2

[9] = system: attention-deficit hyperactivity disorder (ADHD); details: Patrick et al 1987; cited from earlier work
[10] = after intravenous dosing; Ding et al 1997; cited from earlier work

cytochrome P450 sub-type 2D6, sequence (P10635 whole entry): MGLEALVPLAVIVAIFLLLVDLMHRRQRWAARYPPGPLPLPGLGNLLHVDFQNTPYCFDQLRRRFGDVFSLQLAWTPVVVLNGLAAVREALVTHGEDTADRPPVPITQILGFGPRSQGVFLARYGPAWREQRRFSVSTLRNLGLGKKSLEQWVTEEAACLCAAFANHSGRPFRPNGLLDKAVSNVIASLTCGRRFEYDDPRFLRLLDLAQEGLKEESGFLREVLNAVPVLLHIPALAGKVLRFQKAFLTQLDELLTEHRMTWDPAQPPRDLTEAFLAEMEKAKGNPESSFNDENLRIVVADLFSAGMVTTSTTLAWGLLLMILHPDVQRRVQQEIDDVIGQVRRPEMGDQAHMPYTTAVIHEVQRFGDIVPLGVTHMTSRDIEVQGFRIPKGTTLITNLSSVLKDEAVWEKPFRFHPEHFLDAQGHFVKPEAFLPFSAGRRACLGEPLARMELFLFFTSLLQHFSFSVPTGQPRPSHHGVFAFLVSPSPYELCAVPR
cytochrome P450 sub-type 2E1, sequence (P05181 whole entry): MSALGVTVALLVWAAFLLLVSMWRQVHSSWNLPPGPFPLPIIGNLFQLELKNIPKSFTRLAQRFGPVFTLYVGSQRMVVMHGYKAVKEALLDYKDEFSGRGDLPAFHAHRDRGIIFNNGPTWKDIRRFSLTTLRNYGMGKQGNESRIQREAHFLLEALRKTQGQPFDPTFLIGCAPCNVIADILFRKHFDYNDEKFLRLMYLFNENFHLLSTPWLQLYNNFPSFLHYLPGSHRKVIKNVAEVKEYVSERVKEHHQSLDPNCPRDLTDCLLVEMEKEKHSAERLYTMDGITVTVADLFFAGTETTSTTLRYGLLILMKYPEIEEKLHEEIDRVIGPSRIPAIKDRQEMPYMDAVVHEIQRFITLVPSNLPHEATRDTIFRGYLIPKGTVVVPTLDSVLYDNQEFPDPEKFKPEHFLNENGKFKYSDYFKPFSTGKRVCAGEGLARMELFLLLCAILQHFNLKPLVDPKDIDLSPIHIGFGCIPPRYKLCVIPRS
cytochrome P450 sub-type 3A4, sequence (P08684 whole entry): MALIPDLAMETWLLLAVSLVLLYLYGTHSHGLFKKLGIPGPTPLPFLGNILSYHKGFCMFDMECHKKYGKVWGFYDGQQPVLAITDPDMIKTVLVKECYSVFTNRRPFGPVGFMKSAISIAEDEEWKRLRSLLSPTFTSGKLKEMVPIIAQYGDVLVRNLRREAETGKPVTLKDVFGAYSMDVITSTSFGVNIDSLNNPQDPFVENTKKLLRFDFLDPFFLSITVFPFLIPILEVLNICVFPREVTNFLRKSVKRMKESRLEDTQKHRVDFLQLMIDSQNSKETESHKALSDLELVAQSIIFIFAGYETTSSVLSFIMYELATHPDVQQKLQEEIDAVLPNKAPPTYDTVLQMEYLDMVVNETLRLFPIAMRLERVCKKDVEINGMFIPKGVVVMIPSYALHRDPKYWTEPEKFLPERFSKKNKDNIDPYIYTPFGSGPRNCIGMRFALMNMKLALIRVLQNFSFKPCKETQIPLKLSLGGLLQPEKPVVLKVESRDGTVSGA

COC(=O)[C@@H](c1ccccc1)[C@@H]1CCCCN1 [l-MPH, l-threo-Methylphenidate]
NUMBER OF CLONIC CONVULSIONS number of rats (rat [1]; 8 mg/kg s.c. −30 min): 10
NUMBER OF DEATHS number of rats (rat [1]; 8 mg/kg s.c. −30 min): 10
NUMBER OF TONIC CONVULSIONS number of rats (rat [1]; 8 mg/kg s.c. −30 min): 10
NUMBER OF CLONIC CONVULSIONS % antagonism (rat [1]; 8 mg/kg s.c. −30 min): 0%
NUMBER OF DEATHS % antagonism (rat [1]; 8 mg/kg s.c. −30 min): 0%
NUMBER OF TONIC CONVULSIONS % antagonism (rat [1]; 8 mg/kg s.c. −30 min): 0%
LATENCY TO CLONIC CONVULSIONS % change from control (rat [1]; 8 mg/kg s.c. −30 min): +38%
LATENCY TO CLONIC CONVULSIONS mean ± s.e.m. (rat [1]; 8 mg/kg s.c. −30 min): 756.0 ± 105.0 NS sec
LATENCY TO DEATHS % change from control (rat [1]; 8 mg/kg s.c. −30 min): +20%
LATENCY TO DEATHS mean ± sem. (rat [1]; 8 mg/kg s.c. −30 min): 1566.1 ± 199.9 NS sec
LATENCY TO TONIC CONVULSIONS % change from control (rat [1]; 8 mg/kg s.c. −30 min): +23%
LATENCY TO TONIC CONVULSIONS mean ± sem. (rat [1]; 8 mg/kg s.c. −30 min): 1443.0 ± 198.2 NS sec
NUMBER OF CLONIC CONVULSIONS number of rats (rat [1]; 16 mg/kg s.c. −30 min): 9
NUMBER OF DEATHS number of rats (rat [1]; 16 mg/kg s.c. −30 min): 7
NUMBER OF TONIC CONVULSIONS number of rats (rat [1]; 16 mg/kg s.c. −30 min): 8
NUMBER OF CLONIC CONVULSIONS % antagonism (rat [1]; 16 mg/kg s.c. −30 min): 10%
NUMBER OF DEATHS % antagonism (rat [1]; 16 mg/kg s.c. −30 min): 30%
NUMBER OF TONIC CONVULSIONS % antagonism (rat [1]; 16 mg/kg s.c. −30 min): 20%
LATENCY TO CLONIC CONVULSIONS % change from control (rat [1]; 16 mg/kg s.c. −30 min): +99%
LATENCY TO CLONIC CONVULSIONS mean ± s.e.m. (rat [1]; 16 mg/kg s.c. −30 min): 1086.7 ± 213.6* sec
LATENCY TO DEATHS % change from control (rat [1]; 16 mg/kg s.c. −30 min): +35%
LATENCY TO DEATHS mean ± sem. (rat [1]; 16 mg/kg s.c. −30 min): 1757.1 ± 209.8* sec
LATENCY TO TONIC CONVULSIONS % change from control (rat [1]; 16 mg/kg s.c. −30 min): +53%
LATENCY TO TONIC CONVULSIONS mean ± sem. (rat [1]; 16 mg/kg s.c. −30 min): 1785.0 ± 292.2* sec
NUMBER OF CLONIC CONVULSIONS number of rats (rat [1]; 32 mg/kg s.c. −30 min): 10
NUMBER OF DEATHS number of rats (rat [1]; 32 mg/kg s.c. −30 min): 3++
NUMBER OF TONIC CONVULSIONS number of rats (rat [1]; 32 mg/kg s.c. −30 min): 3++
NUMBER OF CLONIC CONVULSIONS % antagonism (rat [1]; 32 mg/kg s.c. −30 min): 0%
NUMBER OF DEATHS % antagonism (rat [1]; 32 mg/kg s.c. −30 min): 70%
NUMBER OF TONIC CONVULSIONS % antagonism (rat [1]; 32 mg/kg s.c. −30 min): 70%
LATENCY TO CLONIC CONVULSIONS % change from control (rat [1]; 32 mg/kg s.c. −30 min): +226%
LATENCY TO CLONIC CONVULSIONS mean ± s.e.m. (rat [1]; 32 mg/kg s.c. −30 min): 1782.0 ± 161.7*** sec
LATENCY TO DEATHS % change from control (rat [1]; 32 mg/kg s.c. −30 min): +150%
LATENCY TO DEATHS mean ± sem. (rat [1]; 32 mg/kg s.c. −30 min): 3260.0 ± 121.7*** sec
LATENCY TO TONIC CONVULSIONS % change from control (rat [1]; 32 mg/kg s.c. −30 min): +162%
LATENCY TO TONIC CONVULSIONS mean ± sem. (rat [1]; 32 mg/kg s.c. −30 min): 3070.0 ± 164.6*** sec
anticonvulsant activity in the PTZ Seizure Test (rat [1]): has anticonvulsant potential
anticonvulsant activity in the PTZ Seizure Test (rat [1]; listed as l-enantiomer): possess anticonvulsant activity
SLEEP DURATION % change from control (rat [2]; 0.5 mg/kg s.c. −30 min): +3%
NUMBER OF RATS SLEEPING (rat [2]; 0.5 mg/kg s.c. −30 min): 9
SLEEP DURATION mean ± s.e.m. (rat [2]; 0.5 mg/kg s.c. −30 min): 63.8 ± 18.5 NS min
SLEEP DURATION % change from control (rat [2]; 2 mg/kg s.c. −30 min): −85%
NUMBER OF RATS SLEEPING (rat [2]; 2 mg/kg s.c. −30 min): 4 +
SLEEP DURATION mean ± s.e.m. (rat [2]; 2 mg/kg s.c. −30 min): 9.5 ± 6.4** min
SLEEP DURATION % change from control (rat [2]; 4 mg/kg s.c. −30 min): −93%
NUMBER OF RATS SLEEPING (rat [2]; 4 mg/kg s.c. −30 min): 6
SLEEP DURATION mean ± s.e.m. (rat [2]; 4 mg/kg s.c. −30 min): 4.3 ± 2.3*** min
SLEEP DURATION % change from control (rat [2]; 8 mg/kg s.c. −30 min): −79%
NUMBER OF RATS SLEEPING (rat [2]; 8 mg/kg s.c. −30 min): 1 +++
SLEEP DURATION mean ± s.e.m. (rat [2]; 8 mg/kg s.c. −30 min): 13.3 ± 13.3 min
effect on barbital-induced sleep (rat [2]; rat, in vivo): antagonise barbital-induced sleep
liver damage as assessed by increased plasma level of alanine aminotransferase and microscopic examination for hepatic necrosis (mouse): not to be linked with liver damage
effect on activity of cytochrome P450 sub-type 1A2 [3]: little or no effect
concentration required to inhibit enzyme activity, cytochrome P450 sub-type 2C18/19 [4]: 100 µM
concentration required to inhibit enzyme activity, cytochrome P450 sub-type 2D6 [5]: 100 µM
effect on activity of cytochrome P450 sub-type 2E1 [6]: little or no effect
effect on activity of cytochrome P450 sub-type 3A4 [7]: little or no effect
concentration required to inhibit enzyme activity, cytochrome P450 sub-type C8/9 [8]: 100 µM
pharmacological action in the treatment of ADHD [9]: no action on the part of the l-enantiomer (l-MPH) has been detected
detection in the brain [10]: detected in the brain
